Laboratory results reported in patent US10765664B2, “Treatment of infectious diseases” (CHILDREN'S MEDICAL CENTER CORPORATION, priority 2015, dated 2020).
Like-named read-outs stand apart in the source and are kept apart here.

What was measured:
[1] = test system: Zaire ebolavirus GP-pseudotyped lentivirus; test: organism not typed; format: cell-based
live Ebola virus = format: cell-based
H37Rv-mCherry MTb = format: cell-based, Mycobacterium tuberculosis; conditions: concentration-dependent; 0, 5, 10, 15, or 20 μM NTZ pretreatment
HIV-1Bal/ZsGreen1 = format: cell-based; conditions: pretreatment with 1 μM NTZ
HIV LTR [2] = format: cell-based; conditions: for HIV transcriptional activation (LTR-Renilla): NTZ 5 or 10 μM pretreatment
HIV LTR [3] = format: cell-based
PKR [4] = test: PKR gene transcription in HeLa cells; format: cell-based, human
RIG-I = RIG-I gene transcription in HeLa cells; format: cell-based, human
HIV = format: cell-based; conditions: MDM or AM/lymphocyte system; expected
nonreplicating MTb = conditions: cited from earlier work
PKR [5] = molecular target: PKR (Homo sapiens, UniProt P19525); conditions: hepatoma cells; cited from earlier work
Sequence of PKR (Homo sapiens, UniProt P19525) (P19525 whole entry): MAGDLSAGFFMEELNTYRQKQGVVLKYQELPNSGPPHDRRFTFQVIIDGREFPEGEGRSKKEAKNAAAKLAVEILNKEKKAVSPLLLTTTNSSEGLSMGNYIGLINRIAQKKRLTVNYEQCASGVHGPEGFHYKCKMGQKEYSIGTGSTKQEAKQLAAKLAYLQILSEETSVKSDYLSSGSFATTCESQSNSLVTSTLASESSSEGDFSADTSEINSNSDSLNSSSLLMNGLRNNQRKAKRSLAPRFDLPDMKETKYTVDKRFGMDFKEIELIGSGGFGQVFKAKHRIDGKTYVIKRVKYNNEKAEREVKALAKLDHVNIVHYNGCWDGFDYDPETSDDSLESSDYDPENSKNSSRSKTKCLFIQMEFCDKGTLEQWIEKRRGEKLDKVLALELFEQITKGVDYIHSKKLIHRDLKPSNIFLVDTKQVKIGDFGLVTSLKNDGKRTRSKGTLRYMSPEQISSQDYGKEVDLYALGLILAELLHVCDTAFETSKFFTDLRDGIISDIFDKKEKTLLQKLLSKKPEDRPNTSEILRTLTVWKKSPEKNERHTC

MTb = conditions: by inhibiting the mTOR pathway; cited from earlier work
[6] = test system: MTb-infected THP-1 cells and human monocytes; conditions: through inhibition of NQO1; cited from earlier work
X4-tropic HIV = conditions: human PBMC, with glucocorticoids; cited from earlier work
influenza = conditions: in vivo; cited from earlier work
HCV = conditions: added to ribavirin plus pegylated IFN; cited from earlier work
THP-1 cells = test: Cellular acidification of THP-1 cells, Lysotracker Red flow cytometry; conditions: 24 hrs
[7] = in vivo; cited from earlier work
[8] = in vivo; cited from earlier work; remark: listed apart in the source
[9] = tizoxanide after a 500 mg dose of NTZ; cited from earlier work
IFITM3 = IFITM3 mRNA in THP-1 cells stimulated with cytokines or TLR agonists, real time PCR; format: cell-based, human; conditions: for IFITM3 mRNA induction: data not shown (Example 3)

## CC(=O)Oc1ccccc1C(=O)Nc1ncc([N+](=O)[O-])s1 [NTZ, [2-[(5-nitro-1,3-thiazol-2-yl)carbamoyl]phenyl] ethanoate]
[1]
  infection by Zaire Ebolavirus GP-pseudotyped lentiviral particles: inhibits
[1]; THP-1, read-out: inhibition of ZE-LV infection
  inhibition at 8 µM: ~40%
Live Ebola virus
  inhibition of live Ebola virus: inhibit
H37Rv-mCherry MTb
  MTb infection of THP-1 cells: potently inhibits
HIV-1Bal/ZsGreen1
  HIVBALZsGreen1 infection of MDM: suppresses
HIV LTR [2]; MTb infection, not shown
  activation of the integrated LTR-Renilla reporter gene: significantly inhibits
HIV LTR [2]; Sendai virus infection
  HIV transcriptional activation (LTR-Renilla): inhibited
HIV LTR [2]; stimulation with TLR2 agonist Pam3Cys
  HIV transcriptional activation (LTR-Renilla): inhibited
HIV LTR [3]; TLR2 agonist Pam3Cys, 10 μM NTZ, 6 hrs
  LTR reactivation (ZsGreen1): reduces
HIV LTR [3]; direct MTb infection, 6 hours
  LTR reactivation (ZsGreen1): reduces
PKR [4]
  transcription of PKR gene: induce
RIG-I
  transcription of RIG-I gene: induce
HIV
  MTb augmentation of HIV replication: suppressed
Nonreplicating MTb
  reduction of viable, nonreplicating MTb: over 2 log units
PKR [5]
  autophosphorylation of PKR: directly induces
MTb
  MTb proliferation: suppress
[6]
  autophagy: promotes autophagy
X4-tropic HIV
  suppression of X4-tropic HIV replication: synergizes
influenza
  treatment of uncomplicated influenza: efficacy
HCV
  HCV virological response: significantly improve
THP-1 cells
  intracellular acidity: increased intracellular acidity

## CC(=O)Oc1ccccc1C(=O)Nc1ncc(Cl)s1 [RM-5038]
[7]
  absorption in the GI tract compared to NTZ: better absorbed
[8]
  tolerability compared to NTZ: better tolerated

## O=C(Nc1ncc([N+](=O)[O-])s1)c1ccccc1O [tizoxanide]
[9]
  peak mean plasma concentration: 26 µM

## IFN-γ: IFN-γ treatment
IFITM3
  IFITM3 mRNA induction: strongly induced

## IL-1β: recombinant IL-1β
IFITM3; THP-1 cells, by 48 hrs
  IFITM3 mRNA vs untreated control cells: significantly elevated

## IL-6: recombinant IL-6
IFITM3; THP-1 cells, by 24 hours post-stimulation
  IFITM3 transcript levels: significant increase

## MCP-1: MCP-1 cytokine treatment
IFITM3
  IFITM3 mRNA induction: not induced

## Pam3Cys
IFITM3; THP-1 cells, TLR agonist 100 ng/ml, 24 and 48 hours
  IFITM3 gene expression: significantly induced
